Results published in patent US20230219962A1, “PYRAZOLO[4,3-d]PYRIMIDINE DERIVATIVES AND METHODS OF USE THEREOF FOR THE TREATMENT OF CELLULAR PROLIFERATIVE DISORDERS” (Merck Sharp & Dohme LLC, priority 2020, published 2023).

Key:
hTLR8 = biological target: T1, hTLR8 (Homo sapiens, UniProt Q9NR97); test: Human TLR8 Reporter Assay; assay type: cell-based; details: HEK-Blue hTLR8 cells, 16 hours, normalized to tl8-506 (1 μM) and DMSO
T1 construct: host or cells: HEK-Blue hTLR8 cells (HEK293-derived, own knowledge)
T1 sequence (Q9NR97 27-1041): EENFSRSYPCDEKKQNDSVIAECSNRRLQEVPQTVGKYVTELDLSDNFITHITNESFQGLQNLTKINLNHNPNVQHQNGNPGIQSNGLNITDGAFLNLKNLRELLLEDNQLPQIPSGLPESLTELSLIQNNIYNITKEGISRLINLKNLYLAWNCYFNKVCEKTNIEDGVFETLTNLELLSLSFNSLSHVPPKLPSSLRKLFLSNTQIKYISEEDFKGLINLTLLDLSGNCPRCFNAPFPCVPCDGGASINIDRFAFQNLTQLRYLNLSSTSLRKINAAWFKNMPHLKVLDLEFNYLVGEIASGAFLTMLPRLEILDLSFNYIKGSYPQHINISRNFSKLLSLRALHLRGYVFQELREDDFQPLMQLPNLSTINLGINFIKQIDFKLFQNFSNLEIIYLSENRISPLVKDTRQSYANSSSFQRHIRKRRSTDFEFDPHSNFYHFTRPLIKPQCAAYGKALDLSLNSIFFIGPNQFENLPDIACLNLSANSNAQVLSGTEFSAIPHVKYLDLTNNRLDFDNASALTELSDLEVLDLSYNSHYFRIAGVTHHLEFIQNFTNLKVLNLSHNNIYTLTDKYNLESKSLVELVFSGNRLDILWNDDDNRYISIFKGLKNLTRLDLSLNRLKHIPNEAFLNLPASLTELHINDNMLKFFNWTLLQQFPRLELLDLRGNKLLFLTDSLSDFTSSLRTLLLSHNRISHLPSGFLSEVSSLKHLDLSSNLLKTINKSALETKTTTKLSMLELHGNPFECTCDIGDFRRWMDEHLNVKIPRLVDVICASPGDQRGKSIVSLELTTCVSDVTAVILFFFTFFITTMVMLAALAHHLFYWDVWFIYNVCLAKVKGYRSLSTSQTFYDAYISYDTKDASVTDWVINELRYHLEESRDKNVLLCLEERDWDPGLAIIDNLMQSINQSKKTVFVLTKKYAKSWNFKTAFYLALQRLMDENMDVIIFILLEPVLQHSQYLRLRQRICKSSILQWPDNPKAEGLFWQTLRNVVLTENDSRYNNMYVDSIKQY
Summary of the method: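 HEK-Blue hTLR8 cells (20,000/well) incubated 16 h at 37 °C with 10-point 3-fold compound dilutions in HEK-Blue Detection medium; reporter read as absorbance at 620 nm. Effects normalized between DMSO and tl8-506 (1 μM); EC50 from 4-parameter fit.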

hTLR7 = biological target: T2, hTLR7 (Homo sapiens, UniProt Q9NYK1); test: Human TLR7 Reporter Assay; assay type: cell-based; details: HEK-Blue hTLR7 cells, 16 hours, normalized to CL097 (6 μM) and DMSO
T2 construct: host or cells: HEK-Blue hTLR7 cells (HEK293-derived, own knowledge)
T2 sequence (Q9NYK1 27-1049): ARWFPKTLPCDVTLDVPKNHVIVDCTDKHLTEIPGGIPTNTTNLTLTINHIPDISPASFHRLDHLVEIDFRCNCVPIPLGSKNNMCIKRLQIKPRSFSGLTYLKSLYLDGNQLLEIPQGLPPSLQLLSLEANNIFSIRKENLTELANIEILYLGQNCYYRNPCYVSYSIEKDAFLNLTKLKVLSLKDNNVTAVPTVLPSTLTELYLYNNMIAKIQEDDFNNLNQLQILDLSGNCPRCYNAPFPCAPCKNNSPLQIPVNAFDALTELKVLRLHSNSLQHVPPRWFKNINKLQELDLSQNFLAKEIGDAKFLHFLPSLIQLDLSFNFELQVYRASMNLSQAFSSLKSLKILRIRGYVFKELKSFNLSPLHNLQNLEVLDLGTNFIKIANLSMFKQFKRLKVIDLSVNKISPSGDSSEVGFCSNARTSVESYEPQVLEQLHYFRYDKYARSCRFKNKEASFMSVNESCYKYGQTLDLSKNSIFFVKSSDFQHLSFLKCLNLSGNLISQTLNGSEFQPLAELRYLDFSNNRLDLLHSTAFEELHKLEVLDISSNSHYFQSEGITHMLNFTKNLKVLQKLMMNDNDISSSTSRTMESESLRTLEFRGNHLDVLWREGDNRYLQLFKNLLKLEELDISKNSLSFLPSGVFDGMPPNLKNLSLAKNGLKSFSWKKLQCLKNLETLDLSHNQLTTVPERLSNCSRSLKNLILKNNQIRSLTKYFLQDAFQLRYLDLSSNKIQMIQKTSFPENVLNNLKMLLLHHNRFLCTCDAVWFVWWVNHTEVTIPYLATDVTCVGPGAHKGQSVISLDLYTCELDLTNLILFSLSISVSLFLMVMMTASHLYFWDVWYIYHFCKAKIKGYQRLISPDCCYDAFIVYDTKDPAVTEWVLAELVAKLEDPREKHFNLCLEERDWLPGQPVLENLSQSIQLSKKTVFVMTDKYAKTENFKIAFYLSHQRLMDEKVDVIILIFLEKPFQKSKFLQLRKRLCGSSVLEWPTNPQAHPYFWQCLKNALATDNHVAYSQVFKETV
Summary of the method: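 HEK-Blue hTLR7 reporter cells (20,000/well) incubated 16 h at 37 °C with 10-point 3-fold compound dilutions; SEAP read by absorbance at 620 nm. Effects normalized between CL097 (6 μM) and DMSO controls; EC50 from 4-parameter fit.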

| EC50 (hTLR8) [nM] | EC50 (hTLR7) [nM] | Structure (SMILES) |
| --- | --- | --- |
| > 9980 | 369 | CCC(C)CNc1nc(N)nc2cn(Cc3c(OC)cccc3OC)nc12 (stereo not shown) [Compound 56] |
| 106 | 57.7 | CCCCNc1nc(N)nc2cn(Cc3ccc(C(C)NC)cc3OC)nc12 (stereo not shown) [Compound 193] |
| > 29900 | 1220 | CCCCNc1nc(N)nc2cn(Cc3ccccc3C)nc12 [Compound 3] |
| 7020 | 2370 | CCCCNc1nc(N)nc2cn(Cc3ccc(C(N)CCN)cc3OC)nc12 (stereo not shown) [Compound 228] |
| 3490 | 5090 | CCC[C@@H](CO)Nc1nc(N)nc2cn(Cc3c(OC)cc(C(CN)N(C)CCC)cc3OC)nc12 (stereo partly shown) [Compound 221] |
| 4900 | 185 | CCCCNc1nc(N)nc2cn(Cc3ccc(C4CCNC4=O)cc3)nc12 (stereo not shown) [Compound 200] |
| 63.3 | 20 | C=CCN(C)Cc1cc(OC)c(Cn2cc3nc(N)nc(N[C@H](C)CCC)c3n2)c(OC)c1 [Compound 187] |
| 835 | 396 | CCCCNc1nc(N)nc2cn(Cc3ccc(C4CCNC4)cc3)nc12 (stereo not shown) [Compound 198] |
| > 9980 | 86.2 | CCCCC(CCO)Nc1nc(N)nc2cn(Cc3ccccc3OC)nc12 (stereo not shown) [Compound 16] |
| 3470 | 354 | CCCCNc1nc(N)nc2cn(Cc3ccc(C4CCNC4=O)cc3)nc12 (stereo not shown) [Compound 202] |
| 4210 | 1090 | CCCCNc1nc(N)nc2cn(Cc3ccccc3)nc12 [Compound 2] |
| 26100 | 3040 | CCCCNc1nc(N)nc2cn(CCCCCCCCN)nc12 [Compound 13] |
| > 9980 | 343 | CCCC(Nc1nc(N)nc2cn(Cc3c(OC)cccc3OC)nc12)C(F)F (stereo not shown) [Compound 135] |
| 611 | 120 | CCCCNc1nc(N)nc2cn(Cc3ccncc3OC)nc12 [Compound 93] |
| 1890 | 226 | CCCCNc1nc(N)nc2cn(Cc3ccccc3OC(F)F)nc12 [Compound 179] |
| 6540 | 578 | CCCCNc1nc(N)nc2cn(Cc3ccccc3Cl)nc12 [Compound 4] |
| 422 | 97.9 | CCCCNc1nc(N)nc2cn(Cc3c(OC)cc(CN4C(=O)C=CC4=O)cc3OC)nc12 [Compound 103] |
| 2730 | 246 | CCCCNc1nc(N)nc2cn(Cc3cc(C)nn3C)nc12 [Compound 173] |
| 860 | 541 | CCCCNc1nc(N)nc2cn(Cc3ccc(CN4CC(N)C4)cc3OC)nc12 [Compound 191] |
| 813 | 125 | CCCCNc1nc(N)nc2cn(Cc3c(OCC)cccc3OCC)nc12 [Compound 40] |
| 1490 | 243 | CCCCNc1nc(N)nc2cn(Cc3ccc(CN4CCN(C(=O)C5CCC(CN6C(=O)C=CC6=O)CC5)CC4)cc3OC)nc12 (stereo not shown) [Compound 69] |
| 119 | 106 | CCCCNc1nc(N)nc2cn(Cc3ccc(C(C)NCCC)cc3OC)nc12 (stereo not shown) [Compound 216] |
| 290 | 90 | CCC[C@@H](C)Nc1nc(N)nc2cn(Cc3c(OC)cc(CNC)cc3OC)nc12 [Compound 189] |
| 590 | 370 | CCCCNc1nc(N)nc2cn(Cc3cc(CNC)ccc3OC)nc12 [Compound 148] |

| EC50 (hTLR8) [nM] | EC50 (hTLR7) [nM] | Structure (SMILES) |
| --- | --- | --- |
| 1890 | 464 | CCCNc1nc(N)nc2cn(Cc3c(OC)cccc3OC)nc12 [Compound 26] |
| 278 | 190 | CCCCNc1nc(N)nc2cn(Cc3ccc(CN(C)C)o3)nc12 [Compound 186] |
| > 29900 | 597 | CCCCNc1nc(N)nc2cn(Cc3c(OC)cc(CNC(=O)C4CCC(CN5C(=O)C=CC5=O)CC4)cc3OC)nc12 (stereo not shown) [Compound 72] |
| 144 | 249 | CCCCNc1nc(N)nc2cn(Cc3ccc(CN4CC(CN)C4)cc3OC)nc12 [Compound 118] |
| 1590 | 277 | CCCCNc1nc(N)nc2cn(Cc3cn(C)nc3OC)nc12 [Compound 197] |
| 2340 | 806 | CCCCNc1nc(N)nc2cn(Cc3c(OC)cccc3OCCCCC(=O)OC)nc12 [Compound 207] |
| 7840 | 1970 | CCCCNc1nc(N)nc2cn(Cc3c(OC)cc(CNC(=O)CCN4C(=O)C=CC4=O)cc3OC)nc12 [Compound 96] |
| 2040 | 292 | CCCCNc1nc(N)nc2cn(Cc3ccc(CN4C(=O)C=CC4=O)cc3OC)nc12 [Compound 104] |
| 1340 | 174 | CCCC(Nc1nc(N)nc2cn(Cc3c(OC)cccc3OC)nc12)C(F)F (stereo not shown) [Compound 136] |
| > 9980 | 414 | CCCCNc1nc(N)nc2cn(Cc3c(OC)cc(N4C(=O)C=CC4=O)cc3OC)nc12 [Compound 98] |
| 291 | 35.8 | CCCC(C)Nc1nc(N)nc2cn(Cc3c(OC)cccc3OC)nc12 (stereo not shown) [Compound 91] |
| 28200 | 2770 | CCC[C@H](CO)Nc1nc(N)nc2cn(Cc3ccccc3OC)nc12 [Compound 29] |
| 880 | 743 | CCCCNc1nc(N)nc2cn(Cc3ccc(N4CCNCC4)cn3)nc12 [Compound 123] |
| > 29900 | 2520 | CCCCNc1nc(N)nc2cn(CC3CCCCC3)nc12 [Compound 7] |
| > 29900 | 7720 | COc1cccc(OC)c1Cn1cc2nc(N)nc(NCC(C)O)c2n1 (stereo not shown) [Compound 48] |
| 11400 | 526 | CCCCNc1nc(N)nc2cn(Cc3ccc(C4CCC(=O)N4)cc3)nc12 (stereo not shown) [Compound 203] |
| > 9980 | 1030 | CCCCNc1nc(N)nc2cn(Cc3ccccc3OC(C)C)nc12 [Compound 37] |
| 170 | 118 | CCCCNc1nc(N)nc2cn(Cc3ccc(C(C)N(C)C)cc3OC)nc12 (stereo not shown) [Compound 220] |
| > 29900 | 4730 | COc1cccc(OC)c1Cn1cc2nc(N)nc(NCCC(C)O)c2n1 (stereo not shown) [Compound 51] |
| 692 | 439 | CCCCNc1nc(N)nc2cn(Cc3ccc(CN)cc3OC)nc12 [Compound 137] |
| 275 | 122 | CCCCNc1nc(N)nc2cn(Cc3ccc(C(C)N(C)C)cc3OC)nc12 (stereo not shown) [Compound 219] |
| 1530 | 490 | CCCCNc1nc(N)nc2cn(Cc3c(OC)ccc(N)c3OC)nc12 [Compound 77] |
| 1490 | 708 | CCCCNc1nc(N)nc2cn(Cc3cccc(N4CCNCC4)c3OC)nc12 [Compound 132] |
